# Source: US11952586B2, “B-cell cultivation method” (Hoffmann-La Roche Inc., priority 2017, dated 2024)
# Tested on: single deposited B-cells
# Assay: co-cultivation of single deposited B-cells with EL-4 B5 cells; antigen binding immunoassay (HSA)
# Assay type: cell-based, rabbit
# Description: Single cell sorted B-cells were cultured in 96-well plates with 200 μl/well EL-4 B5 medium with Pansorbin Cells (SAC) (Calbiochem (Merck), Darmstadt, Deutschland), EL-4 B5 cells (0-5×10^4/well) and rabbit thymocyte supernatant or cytokine mix, respectively, for 7 days at 37° C. in an atmosphere of 5% CO2 in the incubator. B-cell culture supernatants were removed for screening and the cells harvested immediately for variable region gene cloning or frozen at −80° C. in 100 μl RLT buffer (Qiagen, Hilden, Germany).
# The assay was performed at room temperature (RT) on 384-well MaxiSorp microtiter plates (Thermo Scientific) with PBS (phosphate buffered saline) buffer supplemented with 0.5% Gelatin and 0.025% Tween®-20. The plates were coated with 0.5 μg/ml of human serum albumin (HSA, Sigma-Aldrich) for at least 2 hours to overnight. After washing (3×) with PBST (PBS with 0.1% Tween®-20) buffer the wells were blocked with PBS with 0.5% Gelatin and 0.1% Tween®-20. Again, the plates were washed three-times and afterwards dilutions of B-cell supernatants were added. After an incubation of 60 min and 3 washing steps with PBST a 1:4,000 dilution of a HRP-conjugated anti-rabbit IgG antibody (Amersham) was transferred to the wells and incubated for 60 min. Finally, the plates were repeatedly washed (6×) with PBST and developed with BM Blue® HRP substrate solution for 30 min. Absorbance was measured at 392-405 nm.
# [1] = PMA 0.048 ng/ml, 3 Gy, 15k/Well
# [2] = PMA 0.048 ng/ml, 4 Gy, 20k/Well
# [3] = PMA 0.048 ng/ml, 5 Gy, 20k/Well
# [4] = PMA 0.048 ng/ml, 8 Gy, 20k/Well
# [5] = PMA 0.048 ng/ml, 50 Gy, 50k/Well
# [6] = PMA 0.109 ng/ml, 3 Gy, 15k/Well
# [7] = PMA 0.109 ng/ml, 4 Gy, 20k/Well
# [8] = PMA 0.109 ng/ml, 5 Gy, 20k/Well
# [9] = PMA 0.109 ng/ml, 8 Gy, 20k/Well
# [10] = PMA 0.109 ng/ml, 50 Gy, 50k/Well
# [11] = PMA 0.25 ng/ml, 50 Gy, 50k/Well
# [12] = PMA 0.57 ng/ml, 50 Gy, 50k/Well
# [13] = PMA 1.3 ng/ml, 3 Gy, 15k/Well, HSA immunized rabbit
compound,measurement,setting,value
"CCCCCCCCCCCCCC(=O)O[C@@H]1[C@@H](C)[C@@]2(O)[C@@H](C=C(CO)C[C@]3(O)C(=O)C(C)=C[C@@H]23)[C@@H]2C(C)(C)[C@]12OC(C)=O [PMA, phorbol-12-myristate-13-acetate]",HSA (absolute corrected) Freq./plate OD>c,[1],25 % total
same,HSA (absolute corrected) Freq./plate OD>c and rbIgG+,[1],48.8 % IgG
same,HSA (absolute corrected) Freq./plate OD>c,[2],36.9 % total
same,HSA (absolute corrected) Freq./plate OD>c and rbIgG+,[2],50 % IgG
same,HSA (absolute corrected) Freq./plate OD>c,[3],27.4 % total
same,HSA (absolute corrected) Freq./plate OD>c and rbIgG+,[3],38.3 % IgG
same,HSA (absolute corrected) Freq./plate OD>c,[4],42.9 % total
same,HSA (absolute corrected) Freq./plate OD>c and rbIgG+,[4],49.3 % IgG
same,HSA (absolute corrected) Freq./plate OD>c,[5],14.3 % total
same,HSA (absolute corrected) Freq./plate OD>c and rbIgG+,[5],58.3 % IgG
same,HSA (absolute corrected) Freq./plate OD>c,[6],9.5 % total
same,HSA (absolute corrected) Freq./plate OD>c and rbIgG+,[6],17.5 % IgG
same,HSA (absolute corrected) Freq./plate OD>c,[7],32.1 % total
same,HSA (absolute corrected) Freq./plate OD>c and rbIgG+,[7],42.2 % IgG
same,HSA (absolute corrected) Freq./plate OD>c,[8],42.9 % total
same,HSA (absolute corrected) Freq./plate OD>c and rbIgG+,[8],47.1 % IgG
same,HSA (absolute corrected) Freq./plate OD>c,[9],32.1 % total
same,HSA (absolute corrected) Freq./plate OD>c and rbIgG+,[9],41.5 % IgG
same,HSA (absolute corrected) Freq./plate OD>c,[10],9.5 % total
same,HSA (absolute corrected) Freq./plate OD>c and rbIgG+,[10],50 % IgG
same,HSA (absolute corrected) Freq./plate OD>c,"PMA 0.25 ng/ml, 3 Gy, 15k/Well",21.4 % total
same,HSA (absolute corrected) Freq./plate OD>c and rbIgG+,"PMA 0.25 ng/ml, 3 Gy, 15k/Well",45 % IgG
same,HSA (absolute corrected) Freq./plate OD>c,"PMA 0.25 ng/ml, 4 Gy, 20k/Well",33.3 % total
same,HSA (absolute corrected) Freq./plate OD>c and rbIgG+,"PMA 0.25 ng/ml, 4 Gy, 20k/Well",44.4 % IgG
same,HSA (absolute corrected) Freq./plate OD>c,"PMA 0.25 ng/ml, 5 Gy, 20k/Well",32.1 % total
same,HSA (absolute corrected) Freq./plate OD>c and rbIgG+,"PMA 0.25 ng/ml, 5 Gy, 20k/Well",38 % IgG
same,HSA (absolute corrected) Freq./plate OD>c,"PMA 0.25 ng/ml, 8 Gy, 20k/Well",32.1 % total
same,HSA (absolute corrected) Freq./plate OD>c and rbIgG+,"PMA 0.25 ng/ml, 8 Gy, 20k/Well",36.5 % IgG
same,HSA (absolute corrected) Freq./plate OD>c,[11],13.1 % total
same,HSA (absolute corrected) Freq./plate OD>c and rbIgG+,[11],47.1 % IgG
same,HSA (absolute corrected) Freq./plate OD>c,"PMA 0.57 ng/ml, 3 Gy, 15k/Well",11.9 % total
same,HSA (absolute corrected) Freq./plate OD>c and rbIgG+,"PMA 0.57 ng/ml, 3 Gy, 15k/Well",33.3 % IgG
same,HSA (absolute corrected) Freq./plate OD>c,"PMA 0.57 ng/ml, 4 Gy, 20k/Well",26.2 % total
same,HSA (absolute corrected) Freq./plate OD>c and rbIgG+,"PMA 0.57 ng/ml, 4 Gy, 20k/Well",36.1 % IgG
same,HSA (absolute corrected) Freq./plate OD>c,"PMA 0.57 ng/ml, 5 Gy, 20k/Well",38.1 % total
same,HSA (absolute corrected) Freq./plate OD>c and rbIgG+,"PMA 0.57 ng/ml, 5 Gy, 20k/Well",43.8 % IgG
same,HSA (absolute corrected) Freq./plate OD>c,"PMA 0.57 ng/ml, 8 Gy, 20k/Well",35.7 % total
same,HSA (absolute corrected) Freq./plate OD>c and rbIgG+,"PMA 0.57 ng/ml, 8 Gy, 20k/Well",44.1 % IgG
same,HSA (absolute corrected) Freq./plate OD>c,[12],40.5 % total
same,HSA (absolute corrected) Freq./plate OD>c and rbIgG+,[12],46.5 % IgG
same,HSA (absolute corrected) Freq./plate OD>c,[13],3.6 % total
same,HSA (absolute corrected) Freq./plate OD>c and rbIgG+,[13],42.9 % IgG
same,HSA (absolute corrected) Freq./plate OD>c,"PMA 1.3 ng/ml, 4 Gy, 20k/Well",31 % total
same,HSA (absolute corrected) Freq./plate OD>c and rbIgG+,"PMA 1.3 ng/ml, 4 Gy, 20k/Well",42.6 % IgG
same,HSA (absolute corrected) Freq./plate OD>c,"PMA 1.3 ng/ml, 5 Gy, 20k/Well",34.5 % total
same,HSA (absolute corrected) Freq./plate OD>c and rbIgG+,"PMA 1.3 ng/ml, 5 Gy, 20k/Well",40.8 % IgG
same,HSA (absolute corrected) Freq./plate OD>c,"PMA 1.3 ng/ml, 8 Gy, 20k/Well",36.9 % total
same,HSA (absolute corrected) Freq./plate OD>c and rbIgG+,"PMA 1.3 ng/ml, 8 Gy, 20k/Well",40.5 % IgG
same,HSA (absolute corrected) Freq./plate OD>c,"PMA 1.3 ng/ml, 50 Gy, 50k/Well",40.5 % total
same,HSA (absolute corrected) Freq./plate OD>c and rbIgG+,"PMA 1.3 ng/ml, 50 Gy, 50k/Well",47.1 % IgG
